From patent US20250134103A1, “PESTICIDAL MIXTURES COMPRISING AN IS[…]” (priority 2021, published 2025)
Read-outs that look alike come from different tables or passages of the source.

Assays:
Assay type in all cases: in vivo
[1] = test system: tobacco budworm (Heliothis virescens); experiment: Test 1: control of tobacco budworm, 96-well microtiter plates with insect diet and eggs
Method: For evaluating control of tobacco budworm (Heliothis virescens) the test unit consisted of 96-well-microtiter plates containing an insect diet and 15-25 H. virescens eggs.
The compounds or mixtures were formulated using a solution containing 75% water and 25% DMSO. Different concentrations of formulated compounds or mixtures were sprayed onto the insect diet at 10 μl, using a custom-built micro atomizer, at two replications.
For experimental mixtures in these tests, identical volumes of both mixing partners at the desired concentrations respectively, were mixed together.
After application, microtiter plates were incubated at 28±1° C., 80±5% RH for 5 days. Egg and larval mortality were then visually assessed. For the mixture tested the results are listed in Tables 1.1 to 1.7, wherein the * marks synergistic control effect according to Colby's equation.

[2] = test system: yellow fever mosquito (Aedes aegypti); experiment: whole plant or invertebrate
Method: For evaluating control of yellow fever mosquito (Aedes aegypti) the test unit consisted of 96-well-microtiter plates containing 200 μl of tap water per well and 5-15 freshly hatched A. aegypti larvae.
The compounds or mixtures were formulated using a solution containing 75% water and 25% DMSO. Different concentrations of formulated compounds or mixtures were sprayed onto the insect diet at 2.5 μl, using a custom-built micro atomizer, at two replications.
(§1) For experimental mixtures in these tests identical volumes of both mixing partners at the desired concentrations respectively, were mixed together.
After application, microtiter plates were incubated at 28±1° C., 80±5% RH for 2 days. Larval mortality was then visually assessed. For the mixture tested the results are listed in Table 2.1 to 2.11, wherein the * marks synergistic control effect according to Colby's equation.

[3] = test system: green peach aphid (Myzus persicae); experiment: Test 3: control of green peach aphid through systemic means, artificial diet under membrane; conditions: aphid mortality and fecundity after 3 days
Source text: For evaluating control of green peach aphid (Myzus persicae) through systemic means the test unit consisted of 96-well-microtiter plates containing liquid artificial diet under an artificial membrane.
Different concentrations of formulated compounds or mixtures were pipetted into the aphid diet, using a custom built pipetter, at two replications.
as §1
After application, 5-8 adult aphids were placed on the artificial membrane inside the microtiter plate wells. The aphids were then allowed to suck on the treated aphid diet and incubated at 23±1° C. 50±5% RH for 3 days. Aphid mortality and fecundity was then visually assessed.

[4] = test system: boll weevil (Anthonomus grandis); experiment: Test 4: control of boll weevil, 24-well microtiter plates with insect diet and eggs; conditions: egg and larval mortality after 5 days
Method: For evaluating control of boll weevil (Anthonomus grandis) the test unit consisted of 24-well-microtiter plates containing an insect diet and 20-30 A. grandis eggs.
The compounds or mixtures were formulated using a solution containing 75% water and 25% DMSO. Different concentrations of formulated compounds or mixtures were sprayed onto the insect diet at 20 μl, using a custom-built micro atomizer, at two replications.
as §1
After application, microtiter plates were incubated at 23±1° C., 50±5% RH for 5 days. Egg and larval mortality was then visually assessed. For the mixture tested the results are listed in tables 4.1 to 4.4, wherein the * marks synergistic control effect according to Colby's equation.

[5] = test system: tobacco budworm (Plutella xylostella); experiment: Test 5: control of Plutella xylostella, 96-well microtiter plates with insect diet and eggs; conditions: egg and larval mortality after 5 days
Method: For evaluating control of […] (Plutella xylostella) the test unit consisted of 96-well-microtiter plates containing an insect diet and 15-25 P. xylostella eggs.
The compounds or mixtures were formulated using a solution containing 75% water and 25% DMSO. Different concentrations of formulated compounds or mixtures were sprayed onto the insect diet at 5 μl, using a custom-built micro atomizer, at two replications.
as §1
After application, microtiter plates were incubated at 28±1° C., 80±5% RH for 5 days. Egg and larval mortality was then visually assessed.

[6] = Heliothis virescens, 120 h, 0.4 ppm, egg and larval mortality after 5 days, read-out: Average control observed (%)
[7] = Aedes aegypti, 48 h, 0.4 ppm, larval mortality after 2 days, read-out: Average control observed (%)
[8] = Aedes aegypti, 48 h, 4 ppm, larval mortality after 2 days, read-out: Average control observed (%)
[9] = 2 ppm, larval mortality after 2 days
[10] = 0.4 ppm, larval mortality after 2 days

Molecule: Cc1c(COC(=O)[C@@H]2[C@H](/C=C(\Cl)C(F)(F)F)C2(C)C)cccc1-c1ccccc1 (racemic) [Bifenthrin (2b), bifenthrin]
- pest or weed control at 0.4 ppm [1, 6]: 0%
- pest or weed control at 0.4 ppm [2, 7]: 25%

Molecule: C/C(=N\C#N)N(C)Cc1ccc(Cl)nc1 [Acetamiprid (3d), acetamiprid]
- pest or weed control at 4 ppm [2, 8]: 0%

Molecule: CN(C(=O)c1ccccc1)c1cccc(C(=O)Nc2c(Br)cc(C(F)(C(F)(F)F)C(F)(F)F)cc2C(F)(F)F)c1F [Broflanilide (16), broflanilide]
- Average control observed (%) [2, 9]: 12.5%

Molecule: CNC(=O)c1cc(Cl)cc(C)c1NC(=O)c1cc(Br)nn1-c1ncccc1Cl [Chlorantraniliprole (14b), Chlorantraniliprole]
- Average control observed (%) ([3]; 0.4 ppm): 0%

Molecule: CCOCn1c(-c2ccc(Cl)cc2)c(C#N)c(Br)c1C(F)(F)F [Chlorfenapyr (8), chlorfenapyr]
- pest or weed control at 0.8 ppm ([2]; Aedes aegypti, 48 h, 0.8 ppm, larval mortality after 2 days, read-out: Average control observed (%)): 0%

Molecule: CN/C(=N\[N+](=O)[O-])NCc1cnc(Cl)s1 [Clothianidin (3c), clothianidin]
- pest or weed control at 1 ppm ([2]; Aedes aegypti, 48 h, 1 ppm, larval mortality after 2 days, read-out: Average control observed (%)): 0%

Molecule: O=C(NCc1ncccn1)c1ccc(C2=NO[C@@](c3cc(Cl)c(F)c(Cl)c3)(C(F)(F)F)C2)c2ccncc12 [Compound I-1, 5-[(5S)-5-(3,5-dichloro-4-fluoro-phenyl)-5-(trifluoromethyl)-4H-isoxazol-3-yl]-N-(pyrimidin-2-ylmethyl)isoquinoline-8-carboxamide]
- pest or weed control at 0.009 ppm ([1]; Heliothis virescens, 120 h, 0.009 ppm, egg and larval mortality after 5 days, read-out: Average control observed (%)): 0%
- pest or weed control at 0.048 ppm ([1]; Heliothis virescens, 120 h, 0.048 ppm, egg and larval mortality after 5 days, read-out: Average control observed (%)): 0%
- pest or weed control at 0.24 ppm ([1]; Heliothis virescens, 120 h, 0.24 ppm, egg and larval mortality after 5 days, read-out: Average control observed (%)): 0%
- pest or weed control at 0.009 ppm ([2]; Aedes aegypti, 48 h, 0.009 ppm, larval mortality after 2 days, read-out: Average control observed (%)): 0%
- pest or weed control at 0.048 ppm ([2]; Aedes aegypti, 48 h, 0.048 ppm, larval mortality after 2 days, read-out: Average control observed (%)): 0%
- pest or weed control at 0.24 ppm ([2]; Aedes aegypti, 48 h, 0.24 ppm, larval mortality after 2 days, read-out: Average control observed (%)): 0%
- Average control observed (%) ([3]; 0.009 ppm): 0%
- Average control observed (%) ([3]; 0.24 ppm): 0%
- Average control observed (%) ([4]; 0.048 ppm): 0%
- Average control observed (%) ([4]; 0.24 ppm): 0%
- Average control observed (%) ([5]; 0.05 ppm): 0%

Molecule: CC1(C)C(C=C(Cl)Cl)C1C(=O)OC(C#N)c1ccc(F)c(Oc2ccccc2)c1 (centres unmarked) [Cyfluthrin (2c), cyfluthrin]
- Average control observed (%) [2, 10]: 0%

Molecule: CCN(C(=O)c1cnn(C(C)C(C)C)c1C)c1ccnnc1 (centres unmarked) [Dimpropyridaz (17b), dimpropyridaz]
- Average control observed (%) ([3]; 2 ppm): 0%

Molecule: CN/C(=N/CC1CCOC1)N[N+](=O)[O-] (centres unmarked) [Dinotefuran (3f), dinotefuran]
- pest or weed control at 20 ppm ([1]; Heliothis virescens, 120 h, 20 ppm, egg and larval mortality after 5 days, read-out: Average control observed (%)): 0%
- pest or weed control at 4 ppm ([2]; Aedes aegypti, 48 h, read-out: Average control observed (%)): 0%

Molecule: N#Cc1nn(-c2c(Cl)cc(C(F)(F)F)cc2Cl)c(N)c1[S+]([O-])C(F)(F)F (centres unmarked) [Fipronil (1b), fipronil]
- pest or weed control at 0.08 ppm ([1]; Heliothis virescens, 120 h, read-out: Average control observed (%)): 0%
- pest or weed control at 0.4 ppm [2, 7]: 0%
- Average control observed (%) ([4]; 0.4 ppm): 12.5%

Molecule: Cc1cc(C(F)(C(F)(F)F)C(F)(F)F)ccc1NC(=O)c1cccc(I)c1C(=O)NC(C)(C)CS(C)(=O)=O [Flubendiamide (14a), Flubendiamide]
- pest or weed control at 0.4 ppm [1, 6]: 12.5%

Molecule: O=C1C=C(N(Cc2ccc(Cl)nc2)CC(F)F)CO1 [Flupyradifurone (3i), flupyradifurone]
- Average control observed (%) ([3]; 2 ppm): 12.5%

Molecule: O=[N+]([O-])NC1=NCCN1Cc1ccc(Cl)nc1 [Imidacloprid (3b), imidacloprid]
- Average control observed (%) ([3]; 0.8 ppm): 0%

Molecule: COC(=O)N(C(=O)N1CO[C@@]2(C(=O)OC)Cc3cc(Cl)ccc3C2=N1)c1ccc(OC(F)(F)F)cc1 [Indoxacarb (12), indoxacarb]
- Average control observed (%) ([1]; 0.4 ppm, egg and larval mortality after 5 days): 0%
- Average control observed (%) ([2]; 0.08 ppm, larval mortality after 2 days): 0%
- Average control observed (%) [2, 10]: 0%
- Average control observed (%) [2, 9]: 0%
- Average control observed (%) ([4]; 0.08 ppm): 25%

Molecule: COc1cccc(C(=O)NN(C(=O)c2cc(C)cc(C)c2)C(C)(C)C)c1C [Methoxyfenozide (11), methoxyfenozide]
- pest or weed control at 0.4 ppm [1, 6]: 37.5%

Molecule: CCOC(=O)OC1=C(c2cc(C)ccc2C)C(=O)N[C@]12CC[C@@H](OC)CC2 [Spirotetramat (13a), spirotetramat]
- pest or weed control at 80 ppm ([2]; Aedes aegypti, 48 h, 80 ppm, larval mortality after 2 days, read-out: Average control observed (%)): 0%

Molecule: O=C(NC(=O)c1c(F)cccc1F)Nc1cc(Cl)c(F)c(Cl)c1F [Teflubenzuron (9), teflubenzuron]
- Average control observed (%) ([4]; 0.1 ppm): 12.5%

Molecule: N#C/N=C1\SCCN1Cc1ccc(Cl)nc1 [Thiacloprid (3e), thiacloprid]
- pest or weed control at 4 ppm [2, 8]: 50%

Molecule: CN1COCN(Cc2cnc(Cl)s2)/C1=N\[N+](=O)[O-] [Thiamethoxam (3a), thiamethoxam]
- pest or weed control at 0.03 ppm ([1]; Heliothis virescens, 120 h, 0.03 ppm, egg and larval mortality after 5 days, read-out: Average control observed (%)): 0%
- Average control observed (%) ([4]; 0.03 ppm): 0%
- Average control observed (%) ([5]; 0.03 ppm): 0%

Molecule: CC1(C)C(C=C(Cl)Cl)C1C(=O)OC(C#N)c1cccc(Oc2ccccc2)c1 (stereo not drawn) [alpha-cypermethrin (2a), alpha-cypermethrin]
- pest or weed control at 0.4 ppm [1, 6]: 25%

Molecule: CC1(C)[C@H](/C=C(\Cl)C(F)(F)F)[C@@H]1C(=O)O[C@@H](C#N)c1cccc(Oc2ccccc2)c1 [lamda-cyhalothrin (2e), lamda-cyhalothrin]
- Average control observed (%) ([1]; 0.16 ppm, egg and larval mortality after 5 days): 50%
- Average control observed (%) ([2]; 0.16 ppm, larval mortality after 2 days): 0%

Molecule: spinetoram [Spinetoram (4b)]
- Average control observed (%) ([1]; 0.2 ppm, egg and larval mortality after 5 days): 0%
